Patent US10206907B2, “Compounds useful for the treatment of degenerative and inflammatory diseases” (GALAPAGOS NV, priority 2008, dated 2019)
pIC50: −log10 of the molar value.

Biological target: Recombinant human JAK1 catalytic domain (Homo sapiens (Human), UniProt P23458)
Test: JAK1 inhibition assay
Assay type: biochemical
Conditions: semi-quantitative score
Description: (§1) Plates were washed 6 times with 300 μL per well of a 75 mM phosphoric acid solution and the bottom of the plates was sealed. 40 μL/well of Microscint-20 was added, the top of the plates was sealed and readout was performed using the Topcount (Perkin Elmer). Kinase activity was calculated by subtracting counts per minute (cpm) obtained in the presence of a positive control inhibitor (10 μM staurosporine) from cpm obtained in the presence of vehicle. The ability of a test compound to inhibit this activity was determined as: Percentage inhibition=((cpm determined for sample with test compound present−cpm determined for sample with positive control inhibitor) divided by (cpm determined in the presence of vehicle−cpm determined for sample with positive control inhibitor))*100%.
Dose dilution series were prepared for the compounds enabling the testing of dose-response effects in the JAK1 assay and the calculation of the IC50 for each compound.

Sequence of Recombinant human JAK1 catalytic domain (P23458 850-1154): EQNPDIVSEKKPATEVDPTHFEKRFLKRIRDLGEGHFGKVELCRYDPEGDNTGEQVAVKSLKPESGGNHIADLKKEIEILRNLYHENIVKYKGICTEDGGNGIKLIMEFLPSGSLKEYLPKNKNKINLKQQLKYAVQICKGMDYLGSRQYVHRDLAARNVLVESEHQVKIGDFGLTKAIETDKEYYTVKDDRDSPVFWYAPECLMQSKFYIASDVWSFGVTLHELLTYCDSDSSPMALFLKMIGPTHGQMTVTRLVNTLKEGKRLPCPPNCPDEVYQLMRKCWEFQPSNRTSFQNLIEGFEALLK

Compound	pIC50
O=C(Nc1nc2cccc(-c3ccc(NS(=O)(=O)C4CC4)nc3)n2n1)C1CC1 [Compound 191, N-(5-(6-(cyclopropanesulfonamido)pyridin-3-yl)-[1,2,4]triazolo[1,5-a]pyridin-2-yl)cyclopropanecarboxamide]	< 6.00
CC(=O)NC1CCN(C(=O)Cc2ccc(-c3cccc4nc(NC(=O)C5CC5)nn34)cc2)CC1 [Compound 323, Cyclopropanecarboxylic acid (5-{4-[2-(4-acetylamino-piperidin-1-yl)-2-oxo-ethyl]-phenyl}-[1,2,4]triazolo[1,5-a]pyridin-2-yl)-amide]	6.00 to 6.30

The next lines start with the values.

pIC50	Compound
> 7.00	O=C(Nc1nc2cccc(-c3cnn(Cc4cccnc4)c3)n2n1)C1CC1 [Compound 185, Cyclopropanecarboxylic Acid [5-(1-pyridin-3-ylmethyl-1H-pyrazol-4-yl)-[1,2,4]triazolo[1,5-a]pyridin-2-yl]-amide]
6.00 to 6.30	O=C(Nc1nc2cccc(-c3cn(Cc4ccccc4)nn3)n2n1)C1CC1 [Compound 187, N-(5-(1-benzyl-1H-1,2,3-triazol-4-yl)-[1,2,4]triazolo[1,5-a]pyridin-2-yl)cyclopropanecarboxamide]
< 6.00	O=C(Nc1nc2cccc(-c3cn(Cc4ccc(C(F)(F)F)nc4)nn3)n2n1)C1CC1 [Compound 188]
< 6.00	O=C(Nc1nc2cccc(-c3cn(Cc4ccccn4)nn3)n2n1)C1CC1 [Compound 193]
6.30 to 7.00	O=C(Nc1nc2cccc(-c3ccc(S(=O)(=O)Cc4ccccn4)cc3)n2n1)C1CC1 [Compound 194, N-(5-(4-(pyridin-2-ylmethylsulfonyl)phenyl)-[1,2,4]triazolo[1,5-a]pyridin-2-yl)cyclopropanecarboxamide]
6.30 to 7.00	O=C(Nc1nc2cccc(-c3ccc(S(=O)(=O)Cc4cccnc4)cc3)n2n1)C1CC1 [Compound 195, N-(5-(4-(pyridin-3-ylmethylsulfonyl)phenyl)-[1,2,4]triazolo[1,5-a]pyridin-2-yl)cyclopropanecarboxamide]

Biological target: Recombinant human JAK2 catalytic domain (Homo sapiens (Human), UniProt O60674)
Test: JAK2 inhibition assay
Assay type: biochemical
Conditions: semi-quantitative score
Description: as §1, with “After 90 min at 30° C., reactions were stopped by adding of 25 μL/well of 150 mM phosphoric acid. […] Plates” for “Plates”
Dose dilution series were prepared for the compounds enabling the testing of dose-response effects in the JAK2 assay and the calculation of the IC50 for each compound.

Sequence of Recombinant human JAK2 catalytic domain (O60674 808-1132): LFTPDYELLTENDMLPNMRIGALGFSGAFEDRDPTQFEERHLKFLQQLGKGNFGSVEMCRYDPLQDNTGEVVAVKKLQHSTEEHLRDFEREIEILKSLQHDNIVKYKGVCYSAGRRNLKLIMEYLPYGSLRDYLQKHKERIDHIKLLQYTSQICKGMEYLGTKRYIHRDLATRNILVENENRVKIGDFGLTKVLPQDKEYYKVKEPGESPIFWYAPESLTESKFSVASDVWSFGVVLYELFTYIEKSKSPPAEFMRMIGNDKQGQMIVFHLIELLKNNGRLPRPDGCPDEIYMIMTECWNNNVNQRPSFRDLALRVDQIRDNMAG

Compound	pIC50
NC(=O)c1cccc(OCc2ccc(-c3cccc4nc(NC(=O)C5CC5)nn34)cc2)c1 [Compound 251, 3-{4-[2-(Cyclopropanecarbonyl-amino)-[1,2,4]triazolo[1,5-a]pyridin-5-yl]-benzyloxy}-benzamide]	6.30 to 7.00
CCN1C[C@H]2C[C@@H]1CN2Cc1ccc(-c2cccc3nc(NC(=O)C4CC4)nn23)cc1 [Compound 253, Cyclopropanecarboxylic acid {5-[4-((1R,4R)-5-ethyl-2,5-diaza-bicyclo[2.2.1]hept-2-ylmethyl)-phenyl]-[1,2,4]triazolo[1,5-a]pyridin-2-yl}-amide]	6.00 to 6.30
COc1ccc(C(N)=O)cc1NCc1ccc(-c2cccc3nc(NC(=O)C4CC4)nn23)cc1 [Compound 255, 3-{4-[2-(Cyclopropanecarbonyl-amino)-[1,2,4]triazolo[1,5-a]pyridin-5-yl]-benzylamino}-4-methoxy-benzamide]	6.00 to 6.30
Cc1ccc(NCc2ccc(-c3cccc4nc(NC(=O)C5CC5)nn34)cc2)c(F)n1 [Compound 256, Cyclopropanecarboxylic acid (5-{4-[(2-fluoro-6-methyl-pyridin-3-ylamino)-methyl]-phenyl}-[1,2,4]triazolo[1,5-a]pyridin-2-yl)-amide]	6.30 to 7.00
N#Cc1ccc(NCc2ccc(-c3cccc4nc(NC(=O)C5CC5)nn34)cc2)c(F)c1 [Compound 258, Cyclopropanecarboxylic acid (5-{4-[(4-cyano-2-fluoro-phenylamino)-methyl]-phenyl}-[1,2,4]triazolo[1,5-a]pyridin-2-yl)-amide]	> 7.00

More lines, now with the values ahead:

pIC50	Compound
6.00 to 6.30	O=C(Nc1nc2cccc(-c3ccc(CN4CCOCC4=O)cc3)n2n1)C1CC1 [Compound 254, Cyclopropanecarboxylic Acid {5-[4-(3-oxo-morpholin-4-ylmethyl)-phenyl]-[1,2,4]triazolo[1,5-a]pyridin-2-yl}-amide]
6.30 to 7.00	O=C(Nc1nc2cccc(-c3ccc(CN4CCCC4)cc3)n2n1)C1CC1 [Compound 260, Cyclopropanecarboxylic acid [5-(4-pyrrolidin-1-ylmethyl-phenyl)-[1,2,4]triazolo[1,5-a]pyridin-2-yl]-amide]
